pIC50: −log10 of the molar value.
Biological target: T1, recombinant human FLAP protein (Homo sapiens, UniProt P20292)
T1 construct: made in house; host or cells: Sf9 insect cells (membrane fraction, 100,000 x g pellet)
T1 sequence (P20292 1-161): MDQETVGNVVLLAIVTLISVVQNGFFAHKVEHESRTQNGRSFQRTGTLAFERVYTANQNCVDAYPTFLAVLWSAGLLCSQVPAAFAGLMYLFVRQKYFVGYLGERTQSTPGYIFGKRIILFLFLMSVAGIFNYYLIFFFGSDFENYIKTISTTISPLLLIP
Test: FLAP binding assay, displacement of iodinated (125I) FLAP inhibitor, Scintillation Proximity Assay format
Details: [125I]L-691,831 probe, membrane protein from sf9 cells; read-out: hFLAP binding IC50
Procedure: Compounds are assessed for the ability to bind to FLAP in a binding assay that measures compound-specific displacement of an iodinated (^125I) FLAP inhibitor via a Scintillation Proximity Assay format (adapted from S. Charleson et al., Mol. Pharmacol., 1992, 41, 873-879).
Cell pellets produced from sf9 insect cells expressing recombinant human FLAP protein are resuspended in buffer A [15 mM Tris-HCl (pH 7.5), 2 mM MgCl2, 0.3 mM EDTA, 1 mM PMSF]. The cells are lysed with a Dounce homogenizer and the material is centrifuged at 10,000×g for 10 minutes. The supernatant is then collected and centrifuged at 100,000×g for 60 minutes. To prepare membrane protein for an assay, an aliquot of the 100,000×g pellet is resuspended in 1 ml of buffer A, Dounce homogenized, and finally subjected to polytron mixing (30 seconds). Membrane protein (25 μl, 5 μg) is mixed with WGA SPA beads (Amersham) and stirred for 1 h. To an assay plate (Perkin Elmer FlexiPlate) is added 25 μl of test compound prepared in Binding buffer [100 mM Tris (pH 7.5), 140 mM NaCl, 5% glycerol, 2 mM EDTA, 0.5 mM TCEP, 0.05% Tween 20], 25 μl of [^125I]L-691,831 (an iodinated analog of MK-591, Charleson et al. Mol. Pharmacol., 41, 873-879, 1992) and finally 50 μl of the bead/protein mixture. (final concentrations: beads, 200 μg/well; protein, 5 μg/well; [^125I] probe, 0 08 nM/well (17 nCi/well). The plates are shaken for 2 h before reading on a Microbeta plate reader. Non-specific binding is determined by the addition of 10 μM cold L-691,831 compound.

SMILES | pIC50
Cc1ccn(-c2ccc(Cl)cc2-c2nc3cc(-c4cnc(N)nc4)ccc3n2C(C)(C)C)n1 [5-{1-tert-Butyl-2-[5-chloro-2-(3-methyl-pyrazol-1-yl)-phenyl]-1H-benzimidazol-5-yl}-pyrimidin-2-ylamine] | 9.15
CC(C)(C)n1c(-c2cc(C(F)(F)F)ccc2-n2cncn2)nc2cc(-c3cnc(N)nc3)ccc21 | 8.62
CC(C)(COc1ccc(-c2nc3cc(-c4cnc(N)nc4)ccc3n2C(C)(C)C)c(-n2cncn2)c1)C(=O)O [3-{4-[5-(2-Amino-pyrimidin-5-yl)-1-tert-butyl-1H-benzoimidazol-2-yl]-3-[1,2,4]triazol-1-yl-phenoxy}-2,2-dimethyl-propionic acid] | 8.40
CC(C)(C)n1c(-c2cc(Cl)ccc2-n2cccn2)nc2cc(-c3cnc(N)nc3)ccc21 [5-[1-tert-Butyl-2-(5-chloro-2-pyrazol-1-yl-phenyl)-1H-benzimidazol-5-yl]-pyrimidin-2-ylamine] | 8.89
CN(C)C(=O)Oc1ccc(-n2cncn2)c(-c2nc3cc(-c4cnc(N)nc4)ccc3n2C(C)(C)C)c1 [Dimethyl-carbamic acid 3-[5-(2-amino-pyrimidin-5-yl)-1-tert-butyl-1H-benzimidazol-2-yl]-4-1,2,4-triazol-1-yl-phenyl ester] | 7.81
CC(C)(C)n1c(-c2ccccc2-n2ccc(C(F)(F)F)n2)nc2cc(-c3cnc(N)nc3)ccc21 [5-{1-tert-Butyl-2-[2-(3-trifluoromethyl-pyrazol-1-yl)-phenyl]-1H-benzimidazol-5-yl}-pyrimidin-2-ylamine] | 8.35
CC(C)(C)n1c(-c2ccccc2-n2cncn2)nc2cc(-c3cnc4c(c3)CCN4)ccc21 [1-tert-Butyl-5-(2,3-dihydro-1H-pyrrolo[2,3-b]pyridin-5-yl)-2-(2-1,2,4-triazol-1-yl-phenyl)-1H-benzimidazole] | 8.68
CCOC(=O)C(C)(C)COc1ccc(-c2nc3cc(-c4cnc(N)nc4)ccc3n2C(C)(C)C)c(-n2cncn2)c1 [3-{4-[5-(2-Amino-pyrimidin-5-yl)-1-tert-butyl-1H-benzoimidazol-2-yl]-3-[1,2,4]triazol-1-yl-phenoxy}-2,2-dimethyl-propionic acid ethyl ester] | 8.57
Cc1ncn(-c2ccc(F)cc2-c2nc3cc(-c4cnc(N)nc4)ccc3n2C(C)(C)C)n1 [5-{1-tert-Butyl-2-[5-fluoro-2-(3-methyl-1,2,4-triazol-1-yl)-phenyl]-1H-benzimidazol-5-yl}-pyrimidin-2-ylamine] | 8.85
C=Cc1ccc(-n2cncn2)c(-c2nc3cc(-c4cnc(N)nc4)ccc3n2C(C)(C)C)c1 [5-[1-tert-Butyl-2-(2-1,2,4-triazol-1-yl-5-vinyl-phenyl)-1H-benzimidazol-5-yl]-pyrimidin-2-ylamine] | 8.89
CC(C)(C)n1c(-c2cc(F)ccc2-n2cncn2)nc2cc(-c3cnc(N)nc3)ccc21 | 8.85
COCc1ccc(-n2cncn2)c(-c2nc3cc(-c4cnc(N)nc4)ccc3n2C(C)(C)C)c1 [5-[1-tert-Butyl-2-(5-methoxymethyl-2-[1,2,4]triazol-1-yl-phenyl)-1H-benzoimidazol-5-yl]-pyrimidin-2-ylamine] | 7.86
CCNC(=O)c1ncn(-c2ccc(C#N)cc2-c2nc3cc(-c4cnc(N)nc4)ccc3n2C(C)(C)C)n1 [1-{2-[5-(2-Amino-pyrimidin-5-yl)-1-tert-butyl-1H-benzoimidazol-2-yl]-4-cyano-phenyl}-1H-[1,2,4]triazole-3-carboxylic acid ethylamide] | 7.53
CC(C)Oc1ccc(-n2cncn2)c(-c2nc3cc(-c4cnc(N)nc4)ccc3n2C(C)(C)C)c1 [5-[1-tert-Butyl-2-(5-isopropoxy-2-1,2,4-triazol-1-yl-phenyl)-1H-benzimidazol-5-yl]-pyrimidin-2-ylamine] | 8.66
CC(C)(C)n1c(-c2ccccc2-c2ncn(CCO)n2)nc2cc(-c3cnc(N)nc3)ccc21 [2-(3-{2-[5-(2-Amino-pyrimidin-5-yl)-1-tert-butyl-1H-benzoimidazol-2-yl]-phenyl}-[1,2,4]triazol-1-yl)-ethanol] | 8.24
COC(=O)c1cc(-c2ccc(-n3cncn3)c(-c3nc4cc(-c5cnc(N)nc5)ccc4n3C(C)(C)C)c2)cs1 [4-{3-[5-(2-Amino-pyrimidin-5-yl)-1-tert-butyl-1H-benzoimidazol-2-yl]-4-[1,2,4]triazol-1-yl-phenyl}-thiophene-2-carboxylic acid methyl ester] | 8.28

Further molecules by rising pIC50, results first:

pIC50 | SMILES
7.70 | CNC(=O)c1ccc(-n2cncn2)c(-c2nc3cc(-c4cnc(N)nc4)ccc3n2C(C)(C)C)c1 [3-[5-(2-Amino-pyrimidin-5-yl)-1-tert-butyl-1H-benzoimidazol-2-yl]-N-methyl-4-[1,2,4]triazol-1-yl-benzamide]
7.97 | CC(C)(C)n1c(-c2cc(-c3csc(C(=O)O)c3)ccc2-n2cncn2)nc2cc(-c3cnc(N)nc3)ccc21 [4-{3-[5-(2-Amino-pyrimidin-5-yl)-1-tert-butyl-1H-benzoimidazol-2-yl]-4-[1,2,4]triazol-1-yl-phenyl}-thiophene-2-carboxylic acid]
8.28 | COc1ccc(-n2cccn2)c(-c2nc3cc(-c4cnc(N)nc4)ccc3n2C(C)(C)C)c1 [5-[1-tert-Butyl-2-(5-methoxy-2-pyrazol-1-yl-phenyl)-1H-benzimidazol-5-yl]-pyrimidin-2-ylamine]
8.36 | CC(C)(C)n1c(-c2cc(C#N)ccc2-n2cnc(-c3ccccc3Cl)n2)nc2cc(-c3cnc(N)nc3)ccc21 [3-[5-(2-Amino-pyrimidin-5-yl)-1-tert-butyl-1H-benzoimidazol-2-yl]-4-[3-(2-chloro-phenyl)-[1,2,4]triazol-1-yl]-benzonitrile]
8.37 | COc1ccc(-c2nc(C)ns2)c(-c2nc3cc(-c4cnc(N)nc4)ccc3n2C(C)(C)C)c1 [5-{1-tert-Butyl-2-[5-methoxy-2-(3-methyl-1,2,4-thiadiazol-5-yl)-phenyl]-1H-benzimidazol-5-yl}-pyrimidin-2-ylamine]
8.54 | COc1ccc(-c2nc3cc(-c4cnc(N)nc4)ccc3n2C(C)(C)C)c(-n2cncn2)c1 [5-[1-tert-Butyl-2-(4-methoxy-2-1,2,4-triazol-1-yl-phenyl)-1H-benzimidazol-5-yl]-pyrimidin-2-ylamine]
8.57 | CC(C)(C)n1c(-c2cc(I)ccc2-n2cncn2)nc2cc(-c3cnc(N)nc3)ccc21 [5-[1-tert-Butyl-2-(5-iodo-2-1,2,4-triazol-1-yl-phenyl)-1H-benzimidazol-5-yl]-pyrimidin-2-ylamine]
8.62 | Cn1cc(-c2ccc(-n3cncn3)c(-c3nc4cc(-c5cnc(N)nc5)ccc4n3C(C)(C)C)c2)cn1 [5-{1-tert-Butyl-2-[5-(1-methyl-1H-pyrazol-4-yl)-2-[1,2,4]triazol-1-yl-phenyl]-1H-benzoimidazol-5-yl}-pyrimidin-2-ylamine]
8.62 | CC(C)(C)n1c(-c2ccccc2-c2ccno2)nc2cc(-c3cnc(N)nc3)ccc21 [5-[1-tert-butyl-2-(2-isoxazol-5-yl-phenyl)-1H-benzoimidazol-5-yl]-pyrimidin-2-ylamine]
8.72 | Cc1noc(-c2ccc(Cl)cc2-c2nc3cc(-c4cnc(N)nc4)ccc3n2C(C)(C)C)n1 [5-{1-tert-Butyl-2-[5-chloro-2-(3-methyl-1,2,4-oxadiazol-5-yl)-phenyl]-1H-benzimidazol-5-yl}-pyrimidin-2-ylamine]
8.74 | Cc1ccc(-c2nc(C)no2)c(-c2nc3cc(-c4cnc(N)nc4)ccc3n2C(C)(C)C)c1 [5-{1-tert-Butyl-2-[5-methyl-2-(3-methyl-1,2,4-oxadiazol-5-yl)-phenyl]-1H-benzimidazol-5-yl}-pyrimidin-2-ylamine]
8.74 | Cc1ccn(-c2ccc(C#N)cc2-c2nc3cc(-c4cnc(N)nc4)ccc3n2C(C)(C)C)n1 [3-[5-(2-Amino-pyrimidin-5-yl)-1-tert-butyl-1H-benzoimidazol-2-yl]-4-(3-methyl-pyrazol-1-yl)-benzonitrile]
8.74 | Cc1nc(-c2ccccc2-c2nc3cc(-c4cnc(N)nc4)ccc3n2C(C)(C)C)n(C)n1 [5-{1-tert-Butyl-2-[2-(2,5-dimethyl-2H-1,2,4-triazol-3-yl)-phenyl]-1H-benzimidazol-5-yl}-pyrimidin-2-ylamine]
8.77 | CC(C)(C)n1c(-c2cc(F)ccc2-n2cccn2)nc2cc(-c3cnc(N)nc3)ccc21 [5-[1-tert-Butyl-2-(5-fluoro-2-pyrazol-1-yl-phenyl)-1H-benzimidazol-5-yl]-pyrimidin-2-ylamine]
8.96 | Cc1ccn(-c2ccccc2-c2nc3cc(-c4cnc(N)nc4)ccc3n2C(C)(C)C)n1 [5-{1-tert-Butyl-2-[2-(3-methyl-pyrazol-1-yl)-phenyl]-1H-benzimidazol-5-yl}-pyrimidin-2-ylamine]

Reference: patent US8420655B2, “Benzimidazole inhibitors of leukotriene production” (Boehringer Ingelheim International GmbH, priority 2009, dated 2013)
